Results reported in patent publication US11492325B2, “Compounds as inhibitors of sodium channels” (Human BioMolecular Research Institute, priority 2016, dated 2022).
Where a name gives a salt, the structure may show the parent alone. Read-outs that look alike come from different tables or passages of the source.

How the values were obtained:
[1] = molecular target: Nav1.5 sodium channel, peak current (INaP) (Homo sapiens, UniProt Q14524, form not given); experiment: in vitro
Protocol: (§1) This provided data to investigate the physiology and action of target compounds on individual ion channels. The assay used standardized protocols for culturing and conducting conventional whole cell recording that have been previously developed for both current and voltage-clamp to characterize action potentials using transfected cells. Briefly, the Nav1.5 sodium channel was transfected into HEK293 cells. […] Briefly, cells were plated on 0.1% gelatin-coated 35-mm plastic Petri dishes. […] Data was reported as IC50 values±STD (Table 1).

[2] = molecular target: Nav1.5 sodium channel transfected into HEK293 cells (Homo sapiens, UniProt Q14524); experiment: Patch clamp electrophysiology, peak (INaP) and late (INaL) sodium current in transfected cells
Protocol: as §1

[3] = molecular target: hERG potassium channel (IKr) (Homo sapiens, UniProt Q12809); experiment: Automated patch clamp, hERG (IKr) expressed in CHO cells; details: for IC50: hERG (IKr) IC50, CHO cells
Sequence of hERG potassium channel (IKr) (Q12809 whole entry): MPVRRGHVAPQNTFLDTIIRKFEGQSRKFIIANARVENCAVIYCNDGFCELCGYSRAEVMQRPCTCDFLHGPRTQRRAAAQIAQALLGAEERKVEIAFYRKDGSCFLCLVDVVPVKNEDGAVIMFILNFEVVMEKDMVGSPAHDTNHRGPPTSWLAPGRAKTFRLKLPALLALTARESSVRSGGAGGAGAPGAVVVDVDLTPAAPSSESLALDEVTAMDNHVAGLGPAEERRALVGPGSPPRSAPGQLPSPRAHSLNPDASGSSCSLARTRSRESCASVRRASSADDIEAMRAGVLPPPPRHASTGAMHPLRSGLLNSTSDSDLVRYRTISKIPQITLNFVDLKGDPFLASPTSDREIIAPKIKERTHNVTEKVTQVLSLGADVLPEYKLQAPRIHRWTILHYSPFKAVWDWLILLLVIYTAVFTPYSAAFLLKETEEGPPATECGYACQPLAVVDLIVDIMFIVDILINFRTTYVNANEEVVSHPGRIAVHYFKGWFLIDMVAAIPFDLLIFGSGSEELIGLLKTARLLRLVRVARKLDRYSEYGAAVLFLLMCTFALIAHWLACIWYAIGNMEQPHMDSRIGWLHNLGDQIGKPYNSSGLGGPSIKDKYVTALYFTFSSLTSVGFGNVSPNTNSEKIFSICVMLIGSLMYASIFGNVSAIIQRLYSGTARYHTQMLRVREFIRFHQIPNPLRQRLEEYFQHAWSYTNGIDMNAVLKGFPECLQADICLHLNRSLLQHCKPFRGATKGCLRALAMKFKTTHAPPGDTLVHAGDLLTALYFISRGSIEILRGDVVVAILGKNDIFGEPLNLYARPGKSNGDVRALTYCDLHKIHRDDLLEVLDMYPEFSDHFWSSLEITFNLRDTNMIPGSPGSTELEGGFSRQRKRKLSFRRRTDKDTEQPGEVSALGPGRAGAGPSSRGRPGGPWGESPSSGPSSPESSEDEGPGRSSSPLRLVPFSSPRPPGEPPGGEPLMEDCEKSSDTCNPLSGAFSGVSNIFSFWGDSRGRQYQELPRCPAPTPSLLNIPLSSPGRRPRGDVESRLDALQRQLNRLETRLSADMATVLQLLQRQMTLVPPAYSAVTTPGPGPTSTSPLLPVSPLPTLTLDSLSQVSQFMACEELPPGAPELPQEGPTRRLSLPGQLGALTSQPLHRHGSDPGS

[4] = tested on: normal human induced pluripotent stem cell (hiPSC) cardiomyocyte; details: for WT-Fold Prolongation: APD; for WT-Fold Prolongation / Cessation of Beating / WT-Prolongation Dose / WT-EAD Dose: normal hiPSC cardiomyocytes
[5] = tested on: cardiomyocytes derived from hiPSCs from a LQTS3 patient
[6] = tested on: cardiomyocytes derived from hiPSCs from a LQTS3 patient; experiment: cells; details: Homo sapiens, Cardiomyocyte; for IC50: read-out: LQT-IC50 (uM)-Shortening
[7] = ratio peak/late IC50, Example 2

SMILES	Cessation of Beating [4]	LQT-Cessation Dose ([5]; LQT3 cardiomyocytes)	WT-EAD Dose [4]	IC50 ([1]; Peak Na+ (INaP) IC50)	WT-Fold Prolongation [4]	WT-Prolongation Dose [4]	LQT-Fold Shortening ([5]; LQT3 cardiomyocytes)	IC50 [6]	also measured
Cc1cc(C)cc(OCC(N)C2CCCCC2)c1.Cl (stereo not drawn) [Compound 89]				24.3 µM					DNap/NaL ([2]; ratio peak IC50/late IC50): 15.2; DNap/NaL [2, 7]: 15.3; IC50 [3]: 4.9 µM; IC50 ([3]; Example 2): 4.9 µM; DKr/NaL ([3]; ratio hERG IC50/late Na IC50): 3.1; DNaP/Kr ([3]; ratio peak Na IC50/hERG IC50): 5.0; DKr/NaL ([3]; ratio, Example 2): 3.1; DNaP/Kr ([3]; ratio, Example 2): 5.0
COCCNC(COc1ccccc1C)c1ccccc1.Cl (stereo not drawn) [Compound 90]	133 µM	133 µM			None	None	1.1		IC50 [1]: 33.4 µM; DNap/NaL ([2]; ratio peak IC50/late IC50): 11.8; DNap/NaL [2, 7]: 11.8; IC50 ([2]; read-out: Late Na+ (INaL) IC50, patch clamp, transfected cells): 2.83 µM; IC50 ([2]; read-out: Late Na+ (INaL) IC50, transfected cells, Example 2): 2.83 µM; IC50 ([2]; read-out: Peak Na+ (INaP) IC50, transfected cells, Example 2): 33.4 µM; IC50 ([3]; Example 2): 25.3 µM; DKr/NaL ([3]; ratio, Example 2): 1.32; DNaP/Kr ([3]; ratio, Example 2): 1.32
Cc1cc(C)cc(OCC(N)C2CC2)c1.Cl (stereo not drawn) [Compound 91]				76.8 µM					IC50 [2]: 10 µM; DNap/NaL ([2]; ratio peak IC50/late IC50): 7.7; DNap/NaL [2, 7]: 7.68; IC50 [3]: 45.8 µM; IC50 ([3]; Example 2): 45.8 µM; DKr/NaL ([3]; ratio hERG IC50/late Na IC50): 4.6; DNaP/Kr ([3]; ratio peak Na IC50/hERG IC50): 1.7; DKr/NaL ([3]; ratio, Example 2): 4.6; DNaP/Kr ([3]; ratio, Example 2): 1.7
Cc1cccnc1OCC(C)N (stereo not drawn) [Compound 100, 1-(-3-Methyl-pyridin-2-yloxy)propan-2-amine]	None	22 µM		252 µM	None	None	1.13		
Cc1cccc(C)c1OCC(C)N (racemic) [racemic Mexiletine]				183 µM				1.83 µM	IC50 ([3]; Example 2): 54 µM
Cc1cccnc1OCC(=NOCc1ccccc1)c1ccccc1 [Compound 19]	133 µM	133 µM			None	None	1.406	1.38 µM	WT-Cessation Dose ([4]; pyridyl derivatives): 133 µM; WT-EC50 (μM) Prolongation ([4]; pyridyl derivatives): Does Not Prolong AP; LQT-Fold Shortening ([5]; pyridyl derivatives): 1.406; LQT-Shortening Dose ([5]; pyridyl derivatives): 66 µM; EC50 ([6]; read-out: LQT-EC50 (μM) Shortening, pyridyl derivatives): 1.38 µM
Cc1ccccc1OCC(N)c1ccc2ccccc2c1 (stereo not drawn) [Compound 133]									WT-EC50 (μM) Prolongation ([4]; WT cardiomyocytes, AP prolongation): Does Not Prolong AP; LQT-Fold Shortening ([5]; LQT-3 cardiomyocytes): 1.302; LQT-Cessation Dose ([5]; LQT-3 cardiomyocytes, cessation of beating): 133 µM; EC50 ([6]; read-out: LQT-EC50 (μM) Shortening, LQT-3 cardiomyocytes, AP shortening): 8.83 µM
Cc1cccnc1OCC(O)c1ccccc1 (stereo not drawn) [Compound 21]	None	None		129 µM	None	None	1.23		DNap/NaL ([2]; ratio peak IC50/late IC50): 6.1; DNap/NaL [2, 7]: 6.1; IC50 [3]: 100 µM; IC50 ([3]; Example 2): > 100 µM; DKr/NaL ([3]; ratio hERG IC50/late Na IC50): 4.7; DNaP/Kr ([3]; ratio peak Na IC50/hERG IC50): 1.3; DKr/NaL ([3]; ratio, Example 2): >4.7; DNaP/Kr ([3]; ratio, Example 2): 1.3
Cc1cccc(C)c1OCC(N)c1ccc(C(F)(F)F)cc1 (stereo not drawn) [Compound 16, 2-(2,6-dimethylphenoxy)-1-(4-(trifluoromethyl)phenyl)ethanamine]	66 µM	66 µM			None	None	1.480	1.38 µM	
Cc1cccc(Cl)c1OC[C@H](C)N [Compound 57, (S)-1-(2-chloro-6-methylphenoxy)propan-2-amine hydrochloride]	None	None	200 µM		3.615		1.14	0.19 µM	
CCCc1ccccc1OCC(C)N (stereo not drawn) [Compound 49, 1-(2-Propylphenoxy)propan-2-amine]	200 µM	133 µM			1.385		1.192	0.85 µM	
Cl.NC(COc1cccc(C(F)(F)F)c1)c1ccccc1 (stereo not drawn) [Compound 81, 1-phenyl-2-(3-(trifluoromethyl)phenoxy)ethan-1-amine]	66 µM	66 µM			None	None	1.539	4.07 µM	
Cc1ccc(OCC(N)C2CC2)c(C)c1.Cl (stereo not drawn) [Compound 65]	200 µM	200 µM	66 µM		2.12		1.119	1.36 µM	
Cc1cccc(Cl)c1OC[C@@H](C)N [Compound 56]	None	None	133 µM		3.925		1.189	0.04 µM	

Continued, in another order:

Cessation of Beating [4]	LQT-Cessation Dose ([5]; LQT3 cardiomyocytes)	WT-EAD Dose [4]	SMILES	IC50 ([1]; Peak Na+ (INaP) IC50)	WT-Fold Prolongation [4]	WT-Prolongation Dose [4]	LQT-Fold Shortening ([5]; LQT3 cardiomyocytes)	IC50 [6]	also measured
	None	200 µM	Cc1cccc(C)c1OC[C@H](C)N [Compound 2b, (S)-(+)-Mexiletine Hydrochloride, reference compound]	129 µM				0.8 µM	IC50 [3]: 84 µM
	None	200 µM	Cc1cccc(C)c1OCC(C)N (racemic) [Compound 1, Mexiletine, reference compound]	183 µM				1.83 µM	IC50 [3]: 54 µM
	None	200 µM	Cc1cccc(C)c1OC[C@@H](C)N [Compound 2a, (R)-(−)-Mexiletine Hydrochloride, reference compound]	128 µM				0.96 µM	IC50 [3]: 54 µM
133 µM	66 µM		Cc1cccc(OCC(N)c2ccccc2)c1C (stereo not drawn) [Compound 35, 2-(2,3-dimethylphenoxy)-1-phenylethanamine]	10.9 µM	None	None	1.406		IC50 [2]: 1.03 µM; DNap/NaL [2, 7]: 10.6; IC50 ([3]; Example 2): 9.2 µM; DKr/NaL ([3]; ratio, Example 2): 8.9; DNaP/Kr ([3]; ratio, Example 2): 1.2
66 µM	133 µM		Cc1cccc(C)c1OCC(C)NC(=O)c1ccccc1 (stereo not drawn) [Compound 54]		None	None	1.45	57.8 µM	
None	None		Cc1cccc(C)c1OCC(NC(=O)c1ccccc1)c1ccccc1 (stereo not drawn) [Compound 29, N-(2-(2,6-dimethylphenoxy)-1-phenylethyl)benzamide]		None	None	1.64	> 0.8 µM	
133 µM	200 µM		CCCCNC(COc1cccc(C)c1C)c1ccccc1 (stereo not drawn) [Compound 30, 2-(2,3-dimethylphenoxy)-N-butyl-1-phenylethanamine]		None	None	1.423	20.2 µM	
133 µM	66 µM	66 µM	CCCCNC(C)COc1c(C)cccc1C (stereo not drawn) [Compound 39, 1-(2,6-dimethylphenoxy)-N-butylpropan-2-amine]		3.827		1.180	0.73 µM	
